Results as given in US20230321012A1 (priority 2021, published 2023).

What was measured:
clinical = details: for Cmax / AUC(0-t) / Tmax: human, plasma, oral
Experimental: Clinical Trial Outline. […] All solid tumor types are eligible for the trial. […] An expansion cohort was included at the RP2D level to confirm safety and tolerability of the combination. […] In Part 2, patients were treated by giving both agents twice daily (BID dosing schedule).
Plasma samples were analyzed for AMXT 1501 concentration via a LC/MS^2 procedure (MI-0028-DB-AB; Agilux Laboratories, Worcester, Massachusetts), and the resulting concentration versus time data were used to estimate individual PK parameters using noncompartmental analysis (NCA).

four tumor cell lines = assay: In vitro tumor cell growth inhibition by AMXT 1501; type: cell-based; details: equivalent of 51 nM
Excerpt: See Burns, M. R., et al., J Med Chem 52, 1983-1993 (2009), the entire content of which is incorporated herein by reference.

With `CCCCCCCCCCCCCCCC(=O)NCCCC[C@@H](N)C(=O)NCCCNCCCCNCCCN` [AMXT 1501, D-lys(palmitoyl)-spermine] the Cmax (clinical; 1800 mg, average Cmax, plasma AMXT 1501, Part 1 Cohort 5, 1,800 mg, repeat dosing Day 14, n=4) was 794 ng/mL, the AUC(0-t) (clinical; AUC0-6 hr Mean, Part 1 Cohort 1, 80 mg QD, Cycle 1 Day 28, +DFMO 500 mg/day) was 60.5 ng·h/mL and the AUC(0-t) (clinical; AUC0-6 hr Mean, Part 1 Cohort 2, 160 mg QD, Cycle 1 Day 28, +DFMO 500 mg/day) was 88.6 ng·h/mL. For the same molecule, the AUC(0-t) (clinical; AUC0-6 hr Mean, Part 1 Cohort 3, 400 mg QD, Cycle 1 Day 28, +DFMO 500 mg/day) was 234 ng·h/mL, the AUC(0-t) (clinical; AUC0-6 hr Mean, Part 1 Cohort 5, 1800 mg QD, Cycle 1 Day 28, +DFMO 500 mg/day) was 1860 ng·h/mL and the AUC(0-t) (clinical; AUC0-6 hr Median, Part 1 Cohort 1, 80 mg QD, Cycle 1 Day 28, +DFMO 500 mg/day) was 62.9 ng·h/mL. The AUC(0-t) (clinical; AUC0-6 hr Median, Part 1 Cohort 2, 160 mg QD, Cycle 1 Day 28, +DFMO 500 mg/day) was 84.8 ng·h/mL, the AUC(0-t) (clinical; AUC0-6 hr Median, Part 1 Cohort 3, 400 mg QD, Cycle 1 Day 28, +DFMO 500 mg/day) was 93.8 ng·h/mL and the AUC(0-t) (clinical; AUC0-6 hr Median, Part 1 Cohort 5, 1800 mg QD, Cycle 1 Day 28, +DFMO 500 mg/day) was 1430 ng·h/mL. It also gave an AUC(0-t) (clinical; AUC0-t Mean, Part 1 Cohort 1, 80 mg QD, Cycle 1 Day 28, +DFMO 500 mg/day) of 169 ng·h/mL, an AUC(0-t) (clinical; AUC0-t Mean, Part 1 Cohort 2, 160 mg QD, Cycle 1 Day 28, +DFMO 500 mg/day) of 150 ng·h/mL and an AUC(0-t) (clinical; AUC0-t Mean, Part 1 Cohort 3, 400 mg QD, Cycle 1 Day 28, +DFMO 500 mg/day) of 791 ng·h/mL. It also gave an AUC(0-t) (clinical; AUC0-t Mean, Part 1 Cohort 5, 1800 mg QD, Cycle 1 Day 28, +DFMO 500 mg/day) of 7370 ng·h/mL, an AUC(0-t) (clinical; AUC0-t Median, Part 1 Cohort 1, 80 mg QD, Cycle 1 Day 28, +DFMO 500 mg/day) of 62.9 ng·h/mL and an AUC(0-t) (clinical; AUC0-t Median, Part 1 Cohort 2, 160 mg QD, Cycle 1 Day 28, +DFMO 500 mg/day) of 112 ng·h/mL. For the same molecule, the AUC(0-t) (clinical; AUC0-t Median, Part 1 Cohort 3, 400 mg QD, Cycle 1 Day 28, +DFMO 500 mg/day) was 422 ng·h/mL, the AUC(0-t) (clinical; AUC0-t Median, Part 1 Cohort 5, 1800 mg QD, Cycle 1 Day 28, +DFMO 500 mg/day) was 6920 ng·h/mL and the Cmax (clinical; Cmax Mean, Part 1 Cohort 1, 80 mg QD, Cycle 1 Day 28, +DFMO 500 mg/day) was 16.4 ng/mL. The Cmax (clinical; Cmax Mean, Part 1 Cohort 2, 160 mg QD, Cycle 1 Day 28, +DFMO 500 mg/day) was 23.7 ng/mL, the Cmax (clinical; Cmax Mean, Part 1 Cohort 3, 400 mg QD, Cycle 1 Day 28, +DFMO 500 mg/day) was 55.8 ng/mL and the Cmax (clinical; Cmax Mean, Part 1 Cohort 5, 1800 mg QD, Cycle 1 Day 28, +DFMO 500 mg/day) was 401 ng/mL. For the same molecule, the Cmax (clinical; Cmax Median, Part 1 Cohort 1, 80 mg QD, Cycle 1 Day 28, +DFMO 500 mg/day) was 15.1 ng/mL, the Cmax (clinical; Cmax Median, Part 1 Cohort 2, 160 mg QD, Cycle 1 Day 28, +DFMO 500 mg/day) was 23.2 ng/mL and the Cmax (clinical; Cmax Median, Part 1 Cohort 3, 400 mg QD, Cycle 1 Day 28, +DFMO 500 mg/day) was 20.3 ng/mL. It also gave a Cmax (clinical; Cmax Median, Part 1 Cohort 5, 1800 mg QD, Cycle 1 Day 28, +DFMO 500 mg/day) of 321 ng/mL, a Tmax (clinical; Tmax Mean, Part 1 Cohort 1, 80 mg QD, Cycle 1 Day 28, +DFMO 500 mg/day) of 11.3 h and a Tmax (clinical; Tmax Mean, Part 1 Cohort 2, 160 mg QD, Cycle 1 Day 28, +DFMO 500 mg/day) of 4.5 h. It also gave a Tmax (clinical; Tmax Mean, Part 1 Cohort 3, 400 mg QD, Cycle 1 Day 28, +DFMO 500 mg/day) of 11.3 h, a Tmax (clinical; Tmax Mean, Part 1 Cohort 5, 1800 mg QD, Cycle 1 Day 28, +DFMO 500 mg/day) of 4.67 h and a Tmax (clinical; Tmax Median, Part 1 Cohort 1, 80 mg QD, Cycle 1 Day 28, +DFMO 500 mg/day) of 6 h. For the same molecule, the Tmax (clinical; Tmax Median, Part 1 Cohort 2, 160 mg QD, Cycle 1 Day 28, +DFMO 500 mg/day) was 4 h, the Tmax (clinical; Tmax Median, Part 1 Cohort 3, 400 mg QD, Cycle 1 Day 28, +DFMO 500 mg/day) was 6 h and the Tmax (clinical; Tmax Median, Part 1 Cohort 5, 1800 mg QD, Cycle 1 Day 28, +DFMO 500 mg/day) was 4 h. The Cmax (clinical; mean Cmax, plasma AMXT 1501, n=9 patients, 1,200 mg daily split BID plus 1,000 mg daily DFMO split BID) was 493 ng/mL, the Cmax (clinical; plasma AMXT 1501 Cmax with no DLTs observed, a couple of adult patients) was greater than 1000 ng/mL and the Cmax (clinical; plasma Cmax, AMXT 1501, melanoma patient, 1,200 mg daily split BID plus 1,000 mg daily DFMO) was 239 ng/mL. The “effect of co-administration of DFMO on PK of AMXT 1501” value (clinical; patients, DFMO co-administration) was “no obvious effect”, the “dose dependence of mean AMXT 1501 exposure” value (clinical; single or repeat PO dosing, dose levels of 160 mg and higher) was “increased in a dose-dependent manner” and the “plasma AMXT 1501 level achieved” value (clinical; three patients in First-in-Human trial) was 1,000 ng/mL. The “EC50 expressed per tissue weight” value (four tumor cell lines) was 0.029 µg/g and the EC50 (four tumor cell lines; read-out: EC50 as equivalent plasma concentration) was 0.028 µg/mL.
